Results on four compounds are retold here after patent publication US20250368714A1, “TREATMENT OF CANCER” (Immutep S.A.S., priority 2022, published 2025).

Experiment [1] has as its system Patients with HR+ HER2-Neg/Low after Failure of ET Based Therapy. The note with it: No prior CDK4/6; cited from earlier work.
Experiment [2] concerns HER2 negative hormone receptor-positive metastatic breast cancer patients. Nature of the experiment: AIPAC Phase IIb study: paclitaxel+IMP321 vs paclitaxel+placebo, overall survival. The class given is in vivo, human. The note with it: AIPAC paclitaxel plus placebo group. The procedure: A multicentre, placebo-controlled, double-blind, 1:1 randomised Phase IIb study in female HER2 negative hormone receptor-positive metastatic breast cancer patients was conducted. The study comprised two stages: • stage 1 which was an open-label, safety run-in stage consisting of cohorts 1 and 2 to confirm the recommended Phase II dose (RPTD) of IMP321 in combination with paclitaxel; and • stage 2 which was a placebo-controlled, double-blind randomisation stage, paclitaxel+IMP321 at the RPTD compared to paclitaxel+placebo.
The chemo-immunotherapy phase consisted of 6 cycles of 4 weeks. Patients received weekly paclitaxel at Days 1, 8 and 15 with adjunctive treatment of study agent (IMP321) on Days 2 and 16 of each 4-week cycle. After completion of the 6-cycle chemo-immunotherapy phase, responding or stable patients received study agent (IMP321) every 4 weeks during the maintenance phase for an additional period of up to 12 injections.
The chemo-immunotherapy phase consisted of 6 cycles of 4 weeks. Patients received weekly paclitaxel at Days 1, 8 and 15 with adjunctive treatment of study agent (placebo) on Days 2 and 16 of each 4-week cycle.
After completion of the 6-cycle chemo-immunotherapy phase, responding or stable patients received study agent (placebo) every 4 weeks during the maintenance phase for an additional period of up to 12 injections. […]

In experiment [3] the test system is Patients with HR+ HER2-Neg/Low after Failure of ET Based Therapy. Nature of the experiment: Efficacy of single agent chemotherapy after failure of ET based therapy. The note with it: Prior CDK4/6. The class given is in vivo, human. The source says:
Efficacy of Single Agent Chemotherapy for Patients with HR^+ HER2-Neg/Low after Failure of ET Based Therapy

Experiment [4] has as its system unresectable locally advanced or metastatic PD-L1 positive TNBC. The note with it: PD-L1 inhibitor plus paclitaxel; cited from earlier work.
For experiment [5], the system named is locally recurrent unresectable or metastatic TNBC. The conditions noted are these: patients with CPS of 10 or more; cut-off Dec. 11, 2019; placebo-chemotherapy 5.6; cited from earlier work.

Read-outs that look alike come from different tables or passages of the source.

As for `CCCCCOC(=O)Nc1nc(=O)n([C@@H]2O[C@H](C)[C@@H](O)[C@H]2O)cc1F` [Capecitabine, capecitabine], in experiment [1], the “ORR (%)” value is given as 19-30%, the “OS (months)” value is recorded as 9.3-18 months and the “PFS (months)” value is recorded as 2.8-5.9 months.

For `CC(=O)O[C@H]1C(=O)[C@@]2(C)[C@H]([C@H](OC(=O)c3ccccc3)[C@]3(O)C[C@H](OC(=O)[C@H](O)[C@@H](NC(=O)c4ccccc4)c4ccccc4)C(C)=C1C3(C)C)[C@]1(OC(C)=O)CO[C@@H]1C[C@@H]2O` [Paclitaxel, paclitaxel], in experiment [2] (no prior CDK4/6 therapy), the OS is on record as 20.4 months. Moreover, the “median OS” value in experiment [2] (patients pre-treated with CDK4/6) is on record as 14.9 months. For the same compound, in experiment [3], the “ORR (%)” value came out at 36%, the “OS (months)” value is recorded as 14.9 months and the “PFS (months)” value was 6.7 months. Besides, in experiment [1], the “ORR (%)” value was 21-51%, the “OS (months)” value is 20.4-25.8 months and the “PFS (months)” value is reported as 5.9-8.8 months.

Turning to “atezolizumab: PD-L1 inhibitor tested plus paclitaxel in IMpassion131”, the “PFS over paclitaxel alone” value in experiment [4] was “did not demonstrate a statistically significant improvement in PFS”.

As for “pembrolizumab-chemotherapy: pembrolizumab in combination with chemotherapy (paclitaxel, nab-paclitaxel, or carboplatin-gemcitabine), KEYNOTE-355”, in experiment [5], the “median PFS” value was 9.7 months.
